Source: PMC7367283, “A PIP2 substitute mediates voltage sensor-pore coupling in KCNQ activation” (Communications Biology, 2020)

How the values were obtained:
IKs (KCNQ1 + KCNE1) = IKs (KCNQ1 + KCNE1) (Homo sapiens, UniProt P51787); experiment: IKs co-expressed with CiVSP (PIP2 depletion), two-electrode voltage clamp in Xenopus oocytes; format: cell-based; details: 100 µM chromanol 293B, bath application after 10 µM CP1
Source text: We co-expressed KCNQ1 with the voltage-dependent lipid phosphatase CiVSP[44] in Xenopus oocytes and recorded KCNQ1 currents using two-electrode voltage clamp with consecutive depolarizing voltage pulses. […] To more directly test CP1 effects, we applied CP1 to the intracellular side of the inside-out membrane patch that expressed IKs channels.

KCNQ2/KCNQ3 channel = system: KCNQ2/KCNQ3 channel; set-up: method as in PMID 22303005; details: cited from earlier work

Row | effect on CP1-rescued IKs currents (IKs (KCNQ1 + KCNE1)) | Compound | effect on channel activity (KCNQ2/KCNQ3 channel)
1 | inhibited | CCS(=O)(=O)N(C)[C@H]1c2cc(C#N)ccc2OC(C)(C)[C@@H]1O (racemic) [Chromanol 293B, reference compound] | 
2 |  | O=P(O)(O)O[C@@H]1[C@H](O)[C@H](O)[C@@H](OP(=O)(O)O)[C@H](OP(=O)(O)O)[C@H]1O [I(1,4,5)P3] | no effect on channel activity
3 |  | O=P(O)(O)O[C@@H]1[C@@H](O)[C@H](O)[C@H](O)[C@H](O)[C@H]1OP(=O)(O)O [I(4,5)P2] | no effect on channel activity
